Measured values taken from US20150094474A1, “AGRICULTURAL CHEMICALS” (Redx Pharma Ltd., priority 2012, published 2015).

Assays:
barley = test: Herbicidal bioassay, barley (% necrosis); format: in vivo
Outline: (§1)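 Scoring of % necrosis followed EPPO guideline PP1/135 at specified growth intervals, five replicates per species and treatment. Plants at the 2-4 true leaf stage received Potter-tower sprays of DMSO-diluted compounds across six levels from 0.0001% to 0.05%, with water and DMSO controls.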

peas = test: Herbicidal bioassay, peas (% necrosis); format: in vivo
Outline: as §1

In the case of CC(=O)OCC(C)Oc1ccc(Oc2ccc(C(F)(F)F)cn2)cc1 (stereo not drawn) [Compound 63, 2-[4-[[5-(Trifluoromethyl)-2-pyridyl]oxy]phenoxy]propyl acetate], the “Sum of % necrosis in barley” value (barley; Dose 0.000001, Day 0) is reported as “C (less than 50% necrosis)”, the “Sum of % necrosis in barley” value (barley; Dose 0.000001, Day 1) is reported as “C (less than 50% necrosis)” and the “Sum of % necrosis in barley” value (barley; Dose 0.000001, Day 3) is reported as “C (less than 50% necrosis)”. For the same compound, the “Sum of % necrosis in barley” value (barley; Dose 0.000001, Day 7) was “C (less than 50% necrosis)”, the “Sum of % necrosis in barley” value (barley; Dose 0.000001, Day 10) was “C (less than 50% necrosis)” and the “Sum of % necrosis in barley” value (barley; Dose 0.000001, Day 14) was “C (less than 50% necrosis)”. The “Sum of % necrosis in barley” value (barley; Dose 0.000001, Day 21) was “C (less than 50% necrosis)”, the “Sum of % necrosis in barley” value (barley; Dose 0.000005, Day 0) was “C (less than 50% necrosis)” and the “Sum of % necrosis in barley” value (barley; Dose 0.000005, Day 1) was “C (less than 50% necrosis)”. For the same compound, the “Sum of % necrosis in barley” value (barley; Dose 0.000005, Day 3) was “C (less than 50% necrosis)”, the “Sum of % necrosis in barley” value (barley; Dose 0.000005, Day 7) was “C (less than 50% necrosis)” and the “Sum of % necrosis in barley” value (barley; Dose 0.000005, Day 10) was “C (less than 50% necrosis)”. For the same compound, the “Sum of % necrosis in barley” value (barley; Dose 0.000005, Day 14) was “C (less than 50% necrosis)”, the “Sum of % necrosis in barley” value (barley; Dose 0.000005, Day 21) was “C (less than 50% necrosis)” and the “Sum of % necrosis in barley” value (barley; Dose 0.00001, Day 0) was “C (less than 50% necrosis)”. The “Sum of % necrosis in barley” value (barley; Dose 0.00001, Day 1) was “C (less than 50% necrosis)”, the “Sum of % necrosis in barley” value (barley; Dose 0.00001, Day 3) was “C (less than 50% necrosis)” and the “Sum of % necrosis in barley” value (barley; Dose 0.00001, Day 7) was “C (less than 50% necrosis)”. The “Sum of % necrosis in barley” value (barley; Dose 0.00001, Day 10) was “C (less than 50% necrosis)”, the “Sum of % necrosis in barley” value (barley; Dose 0.00001, Day 14) was “C (less than 50% necrosis)” and the “Sum of % necrosis in barley” value (barley; Dose 0.00001, Day 21) was “C (less than 50% necrosis)”. The “Sum of % necrosis in barley” value (barley; Dose 0.00005, Day 0) was “C (less than 50% necrosis)”, the “Sum of % necrosis in barley” value (barley; Dose 0.00005, Day 1) was “C (less than 50% necrosis)” and the “Sum of % necrosis in barley” value (barley; Dose 0.00005, Day 3) was “C (less than 50% necrosis)”. For the same compound, the “Sum of % necrosis in barley” value (barley; Dose 0.00005, Day 7) was “C (less than 50% necrosis)”, the “Sum of % necrosis in barley” value (barley; Dose 0.00005, Day 10) was “C (less than 50% necrosis)” and the “Sum of % necrosis in barley” value (barley; Dose 0.00005, Day 14) was “B (50%-80% necrosis)”. For the same compound, the “Sum of % necrosis in barley” value (barley; Dose 0.00005, Day 21) was “B (50%-80% necrosis)”, the “Sum of % necrosis in barley” value (barley; Dose 0.0001, Day 0) was “C (less than 50% necrosis)” and the “Sum of % necrosis in barley” value (barley; Dose 0.0001, Day 1) was “C (less than 50% necrosis)”. The “Sum of % necrosis in barley” value (barley; Dose 0.0001, Day 3) was “C (less than 50% necrosis)”, the “Sum of % necrosis in barley” value (barley; Dose 0.0001, Day 7) was “C (less than 50% necrosis)” and the “Sum of % necrosis in barley” value (barley; Dose 0.0001, Day 10) was “C (less than 50% necrosis)”. The “Sum of % necrosis in barley” value (barley; Dose 0.0001, Day 14) was “C (less than 50% necrosis)”, the “Sum of % necrosis in barley” value (barley; Dose 0.0001, Day 21) was “C (less than 50% necrosis)” and the “Sum of % necrosis in barley” value (barley; Dose 0.0005, Day 0) was “C (less than 50% necrosis)”. The “Sum of % necrosis in barley” value (barley; Dose 0.0005, Day 1) was “C (less than 50% necrosis)”, the “Sum of % necrosis in barley” value (barley; Dose 0.0005, Day 3) was “C (less than 50% necrosis)” and the “Sum of % necrosis in barley” value (barley; Dose 0.0005, Day 7) was “C (less than 50% necrosis)”. The “Sum of % necrosis in barley” value (barley; Dose 0.0005, Day 10) was “C (less than 50% necrosis)”, the “Sum of % necrosis in barley” value (barley; Dose 0.0005, Day 14) was “C (less than 50% necrosis)” and the “Sum of % necrosis in barley” value (barley; Dose 0.0005, Day 21) was “C (less than 50% necrosis)”. The “Sum of % necrosis in Peas” value (peas; Dose 0.000001, Day 0) was “C (less than 50% necrosis)”, the “Sum of % necrosis in Peas” value (peas; Dose 0.000001, Day 1) was “C (less than 50% necrosis)” and the “Sum of % necrosis in Peas” value (peas; Dose 0.000001, Day 3) was “C (less than 50% necrosis)”. The “Sum of % necrosis in Peas” value (peas; Dose 0.000001, Day 7) was “C (less than 50% necrosis)”, the “Sum of % necrosis in Peas” value (peas; Dose 0.000001, Day 10) was “B (50%-80% necrosis)” and the “Sum of % necrosis in Peas” value (peas; Dose 0.000001, Day 14) was “B (50%-80% necrosis)”. The “Sum of % necrosis in Peas” value (peas; Dose 0.000001, Day 21) was “A (over 80% necrosis)”, the “Sum of % necrosis in Peas” value (peas; Dose 0.000005, Day 0) was “C (less than 50% necrosis)” and the “Sum of % necrosis in Peas” value (peas; Dose 0.000005, Day 1) was “C (less than 50% necrosis)”. The “Sum of % necrosis in Peas” value (peas; Dose 0.000005, Day 3) was “C (less than 50% necrosis)”, the “Sum of % necrosis in Peas” value (peas; Dose 0.000005, Day 7) was “C (less than 50% necrosis)” and the “Sum of % necrosis in Peas” value (peas; Dose 0.000005, Day 10) was “B (50%-80% necrosis)”. The “Sum of % necrosis in Peas” value (peas; Dose 0.000005, Day 14) was “B (50%-80% necrosis)”, the “Sum of % necrosis in Peas” value (peas; Dose 0.000005, Day 21) was “A (over 80% necrosis)” and the “Sum of % necrosis in Peas” value (peas; Dose 0.00001, Day 0) was “C (less than 50% necrosis)”. For the same compound, the “Sum of % necrosis in Peas” value (peas; Dose 0.00001, Day 1) was “C (less than 50% necrosis)”, the “Sum of % necrosis in Peas” value (peas; Dose 0.00001, Day 3) was “C (less than 50% necrosis)” and the “Sum of % necrosis in Peas” value (peas; Dose 0.00001, Day 7) was “C (less than 50% necrosis)”. The “Sum of % necrosis in Peas” value (peas; Dose 0.00001, Day 10) was “B (50%-80% necrosis)”, the “Sum of % necrosis in Peas” value (peas; Dose 0.00001, Day 14) was “B (50%-80% necrosis)” and the “Sum of % necrosis in Peas” value (peas; Dose 0.00001, Day 21) was “A (over 80% necrosis)”. The “Sum of % necrosis in Peas” value (peas; Dose 0.00005, Day 0) was “C (less than 50% necrosis)”, the “Sum of % necrosis in Peas” value (peas; Dose 0.00005, Day 1) was “C (less than 50% necrosis)” and the “Sum of % necrosis in Peas” value (peas; Dose 0.00005, Day 3) was “C (less than 50% necrosis)”. For the same compound, the “Sum of % necrosis in Peas” value (peas; Dose 0.00005, Day 7) was “B (50%-80% necrosis)”, the “Sum of % necrosis in Peas” value (peas; Dose 0.00005, Day 10) was “A (over 80% necrosis)” and the “Sum of % necrosis in Peas” value (peas; Dose 0.00005, Day 14) was “A (over 80% necrosis)”. The “Sum of % necrosis in Peas” value (peas; Dose 0.00005, Day 21) was “A (over 80% necrosis)”, the “Sum of % necrosis in Peas” value (peas; Dose 0.0001, Day 0) was “C (less than 50% necrosis)” and the “Sum of % necrosis in Peas” value (peas; Dose 0.0001, Day 1) was “C (less than 50% necrosis)”. The “Sum of % necrosis in Peas” value (peas; Dose 0.0001, Day 3) was “C (less than 50% necrosis)”, the “Sum of % necrosis in Peas” value (peas; Dose 0.0001, Day 7) was “C (less than 50% necrosis)” and the “Sum of % necrosis in Peas” value (peas; Dose 0.0001, Day 10) was “C (less than 50% necrosis)”. For the same compound, the “Sum of % necrosis in Peas” value (peas; Dose 0.0001, Day 14) was “B (50%-80% necrosis)”, the “Sum of % necrosis in Peas” value (peas; Dose 0.0001, Day 21) was “B (50%-80% necrosis)” and the “Sum of % necrosis in Peas” value (peas; Dose 0.0005, Day 0) was “C (less than 50% necrosis)”. For the same compound, the “Sum of % necrosis in Peas” value (peas; Dose 0.0005, Day 1) was “C (less than 50% necrosis)”, the “Sum of % necrosis in Peas” value (peas; Dose 0.0005, Day 3) was “C (less than 50% necrosis)” and the “Sum of % necrosis in Peas” value (peas; Dose 0.0005, Day 7) was “C (less than 50% necrosis)”. For the same compound, the “Sum of % necrosis in Peas” value (peas; Dose 0.0005, Day 10) was “B (50%-80% necrosis)”, the “Sum of % necrosis in Peas” value (peas; Dose 0.0005, Day 14) was “B (50%-80% necrosis)” and the “Sum of % necrosis in Peas” value (peas; Dose 0.0005, Day 21) was “B (50%-80% necrosis)”.
